In the NIST ThermoML archive (doi:10.1021/je0342062):
Numbers after ± are expanded uncertainties.

Assays:
[1] = 101.33 kPa, Liquid, Vibrating tube method
[2] = xn = mol fraction of the nth substance listed; settings: 308.15 K, 101.32 kPa, Liquid, Vibrating tube method
[3] = excess molar enthalpy (molar enthalpy of mixing); xn = mol fraction of the nth substance listed; settings: 308.15 K, 101.32 kPa, Liquid

`OCc1ccccc1` [benzenemethanol] showed a mass density ([1]; 298.15 K) of 1041.46 ± 0.53 kg/m3 and a mass density ([1]; 308.15 K) of 1033.7 ± 0.52 kg/m3.

Work on `OCc1ccccc1` [benzenemethanol] + OCCO yielded a mass density ([2]; x2 = 0.0395) of 1035.06 ± 0.52 kg/m3, a mass density ([2]; x2 = 0.1313) of 1038.54 ± 0.53 kg/m3 and a mass density ([2]; x2 = 0.2622) of 1044.29 ± 0.53 kg/m3. It also gave a mass density ([2]; x2 = 0.3189) of 1047.1 ± 0.53 kg/m3, a mass density ([2]; x2 = 0.4645) of 1055.28 ± 0.54 kg/m3 and a mass density ([2]; x2 = 0.5057) of 1057.9 ± 0.54 kg/m3. It also gave a mass density ([2]; x2 = 0.609) of 1065.04 ± 0.54 kg/m3, a mass density ([2]; x2 = 0.6863) of 1071.03 ± 0.54 kg/m3 and a mass density ([2]; x2 = 0.7371) of 1075.32 ± 0.55 kg/m3. It also gave a mass density ([2]; x2 = 0.8097) of 1081.99 ± 0.55 kg/m3, a mass density ([2]; x2 = 0.879) of 1088.96 ± 0.55 kg/m3 and a mass density ([2]; x2 = 0.9638) of 1098.48 ± 0.56 kg/m3. For the same compound, the excess molar enthalpy ([3]; x2 = 0.0719) was 0.116 ± 0.0067 kJ/mol, the excess molar enthalpy ([3]; x2 = 0.1341) was 0.171 ± 0.0084 kJ/mol and the excess molar enthalpy ([3]; x2 = 0.1886) was 0.202 ± 0.0093 kJ/mol. It also gave an excess molar enthalpy ([3]; x2 = 0.2365) of 0.209 ± 0.0096 kJ/mol, an excess molar enthalpy ([3]; x2 = 0.3173) of 0.214 ± 0.0097 kJ/mol and an excess molar enthalpy ([3]; x2 = 0.3826) of 0.21 ± 0.0096 kJ/mol. The excess molar enthalpy ([3]; x2 = 0.4817) was 0.201 ± 0.0093 kJ/mol, the excess molar enthalpy ([3]; x2 = 0.5533) was 0.191 ± 0.009 kJ/mol and the excess molar enthalpy ([3]; x2 = 0.6502) was 0.168 ± 0.0083 kJ/mol. It also gave an excess molar enthalpy ([3]; x2 = 0.7361) of 0.138 ± 0.0074 kJ/mol, an excess molar enthalpy ([3]; x2 = 0.788) of 0.118 ± 0.0068 kJ/mol and an excess molar enthalpy ([3]; x2 = 0.848) of 0.086 ± 0.0058 kJ/mol. It also gave an excess molar enthalpy ([3]; x2 = 0.8815) of 0.0712 ± 0.0053 kJ/mol, an excess molar enthalpy ([3]; x2 = 0.9177) of 0.0477 ± 0.0046 kJ/mol and an excess molar enthalpy ([3]; x2 = 0.937) of 0.0366 ± 0.0042 kJ/mol. For the same compound, the excess molar enthalpy ([3]; x2 = 0.9571) was 0.0252 ± 0.0039 kJ/mol and the excess molar enthalpy ([3]; x2 = 0.9781) was 0.0125 ± 0.0035 kJ/mol.

With `OCc1ccccc1` [benzenemethanol] + OCCOCCO the mass density ([2]; x2 = 0.0719) was 1038.79 ± 0.53 kg/m3, the mass density ([2]; x2 = 0.1308) was 1042.93 ± 0.53 kg/m3 and the mass density ([2]; x2 = 0.2285) was 1049.76 ± 0.53 kg/m3. For the same compound, the mass density ([2]; x2 = 0.3115) was 1055.63 ± 0.54 kg/m3, the mass density ([2]; x2 = 0.4139) was 1062.92 ± 0.54 kg/m3 and the mass density ([2]; x2 = 0.5312) was 1071.36 ± 0.54 kg/m3. The mass density ([2]; x2 = 0.6035) was 1076.6 ± 0.55 kg/m3, the mass density ([2]; x2 = 0.7277) was 1085.7 ± 0.55 kg/m3 and the mass density ([2]; x2 = 0.8237) was 1092.77 ± 0.56 kg/m3. It also gave a mass density ([2]; x2 = 0.8597) of 1095.43 ± 0.56 kg/m3, a mass density ([2]; x2 = 0.8984) of 1098.29 ± 0.56 kg/m3 and a mass density ([2]; x2 = 0.9539) of 1102.43 ± 0.56 kg/m3. The excess molar enthalpy ([3]; x2 = 0.0434) was -0.141 ± 0.0075 kJ/mol, the excess molar enthalpy ([3]; x2 = 0.0833) was -0.236 ± 0.01 kJ/mol and the excess molar enthalpy ([3]; x2 = 0.1199) was -0.3 ± 0.012 kJ/mol. It also gave an excess molar enthalpy ([3]; x2 = 0.1537) of -0.344 ± 0.014 kJ/mol, an excess molar enthalpy ([3]; x2 = 0.2142) of -0.395 ± 0.015 kJ/mol and an excess molar enthalpy ([3]; x2 = 0.2665) of -0.422 ± 0.016 kJ/mol. The excess molar enthalpy ([3]; x2 = 0.3528) was -0.439 ± 0.017 kJ/mol, the excess molar enthalpy ([3]; x2 = 0.4208) was -0.447 ± 0.017 kJ/mol and the excess molar enthalpy ([3]; x2 = 0.5216) was -0.457 ± 0.017 kJ/mol. The excess molar enthalpy ([3]; x2 = 0.6206) was -0.449 ± 0.017 kJ/mol, the excess molar enthalpy ([3]; x2 = 0.6856) was -0.429 ± 0.016 kJ/mol and the excess molar enthalpy ([3]; x2 = 0.7658) was -0.371 ± 0.015 kJ/mol. For the same compound, the excess molar enthalpy ([3]; x2 = 0.8135) was -0.331 ± 0.013 kJ/mol, the excess molar enthalpy ([3]; x2 = 0.8674) was -0.251 ± 0.011 kJ/mol and the excess molar enthalpy ([3]; x2 = 0.897) was -0.209 ± 0.0096 kJ/mol. The excess molar enthalpy ([3]; x2 = 0.929) was -0.151 ± 0.0078 kJ/mol and the excess molar enthalpy ([3]; x2 = 0.9632) was -0.0826 ± 0.0057 kJ/mol.

For `OCc1ccccc1` [benzenemethanol] + OCCOCCOCCO, the mass density ([2]; x2 = 0.0519) was 1039.48 ± 0.53 kg/m3, the mass density ([2]; x2 = 0.174) was 1051.93 ± 0.53 kg/m3 and the mass density ([2]; x2 = 0.2411) was 1058.18 ± 0.54 kg/m3. The mass density ([2]; x2 = 0.3373) was 1066.69 ± 0.54 kg/m3, the mass density ([2]; x2 = 0.4327) was 1074.57 ± 0.55 kg/m3 and the mass density ([2]; x2 = 0.5295) was 1082.04 ± 0.55 kg/m3. It also gave a mass density ([2]; x2 = 0.632) of 1089.43 ± 0.55 kg/m3, a mass density ([2]; x2 = 0.7533) of 1097.6 ± 0.56 kg/m3 and a mass density ([2]; x2 = 0.8256) of 1102.12 ± 0.56 kg/m3. For the same compound, the mass density ([2]; x2 = 0.8572) was 1104.07 ± 0.56 kg/m3, the mass density ([2]; x2 = 0.9337) was 1108.5 ± 0.56 kg/m3 and the mass density ([2]; x2 = 0.961) was 1110.01 ± 0.57 kg/m3. It also gave an excess molar enthalpy ([3]; x2 = 0.0313) of -0.139 ± 0.0038 kJ/mol, an excess molar enthalpy ([3]; x2 = 0.0606) of -0.241 ± 0.0054 kJ/mol and an excess molar enthalpy ([3]; x2 = 0.0883) of -0.315 ± 0.0067 kJ/mol. For the same compound, the excess molar enthalpy ([3]; x2 = 0.1143) was -0.369 ± 0.0076 kJ/mol, the excess molar enthalpy ([3]; x2 = 0.1623) was -0.434 ± 0.0087 kJ/mol and the excess molar enthalpy ([3]; x2 = 0.2047) was -0.466 ± 0.0093 kJ/mol. The excess molar enthalpy ([3]; x2 = 0.2792) was -0.492 ± 0.0097 kJ/mol, the excess molar enthalpy ([3]; x2 = 0.3405) was -0.502 ± 0.0099 kJ/mol and the excess molar enthalpy ([3]; x2 = 0.4366) was -0.505 ± 0.0099 kJ/mol. It also gave an excess molar enthalpy ([3]; x2 = 0.5376) of -0.504 ± 0.0099 kJ/mol, an excess molar enthalpy ([3]; x2 = 0.6078) of -0.5 ± 0.0099 kJ/mol and an excess molar enthalpy ([3]; x2 = 0.6992) of -0.455 ± 0.0091 kJ/mol. It also gave an excess molar enthalpy ([3]; x2 = 0.756) of -0.405 ± 0.0082 kJ/mol, an excess molar enthalpy ([3]; x2 = 0.823) of -0.331 ± 0.0069 kJ/mol and an excess molar enthalpy ([3]; x2 = 0.8613) of -0.278 ± 0.006 kJ/mol. It also gave an excess molar enthalpy ([3]; x2 = 0.9029) of -0.21 ± 0.0049 kJ/mol and an excess molar enthalpy ([3]; x2 = 0.949) of -0.1 ± 0.0031 kJ/mol.

`OCCOCCO` [diethylene glycol] gave a mass density ([1]; 298.15 K) of 1112.38 ± 0.57 kg/m3 and a mass density ([1]; 308.15 K) of 1105.88 ± 0.56 kg/m3.

With `OCCOCCOCCO` [triethylene glycol] the mass density ([1]; 298.15 K) was 1119.78 ± 0.57 kg/m3 and the mass density ([1]; 308.15 K) was 1112.61 ± 0.57 kg/m3.
